{"source": "patent US20140296212A1", "about": "“SUBSTITUTED PHENOXYPROPYLCYCLOAMINE DERIVATIVES AS HISTAMINE-3 (H3) RECEPTOR LIGANDS” (CEPHALON, INC., priority 2009, published 2014)"}
{"target": "T1, human H3 receptor (Homo sapiens, UniProt Q9Y5N1)", "T1 construct": "expressed in transfected cells", "T1 sequence (Q9Y5N1 whole entry)": "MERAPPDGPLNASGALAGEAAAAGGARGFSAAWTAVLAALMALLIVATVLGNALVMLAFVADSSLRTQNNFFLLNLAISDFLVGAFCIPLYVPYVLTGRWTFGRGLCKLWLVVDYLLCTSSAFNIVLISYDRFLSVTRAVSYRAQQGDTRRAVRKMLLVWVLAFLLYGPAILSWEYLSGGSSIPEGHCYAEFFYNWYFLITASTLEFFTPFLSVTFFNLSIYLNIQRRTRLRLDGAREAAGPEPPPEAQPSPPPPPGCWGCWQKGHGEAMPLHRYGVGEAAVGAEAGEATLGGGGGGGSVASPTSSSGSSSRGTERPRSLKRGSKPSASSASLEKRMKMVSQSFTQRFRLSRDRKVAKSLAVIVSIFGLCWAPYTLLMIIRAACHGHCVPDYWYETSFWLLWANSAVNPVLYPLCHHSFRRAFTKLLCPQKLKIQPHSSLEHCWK", "assay": "Human H3 radioligand binding ([3H]-N-alpha-methylhistamine, SPA)", "conditions": "membranes of CHO cells expressing human H3", "method": "Cell pellets were resuspended in 5 mM Tris-HCl, pH 7.5 with 5 nM EDTA and a cocktail of protease inhibitors (Complete Protease Inhibitor Tablets, Roche Diagnostics). Cells were disrupted using a polytron cell homogenizer and the suspension was centrifuged at 1000×g for 10 minutes at 4° C. The pellet was discarded and the supernatant centrifuged at 40,000×g for 30 min at 4° C. This membrane pellet was washed in membrane buffer containing 50 mM Tris-HCl, pH 7.5 with 0.6 mM EDTA, 5 mM MgCl2 and protease inhibitors, recentrifuged as above and the final pellet resuspended in membrane buffer plus 250 mM sucrose and frozen at −80° C.\nMembranes were resuspended in 50 mM Tris HCl (pH 7.4), 5 mM MgCl2, 0.1% BSA. The membrane suspensions (10 μg protein per well) were incubated in a 96 well microtiter plate with [^3H]-N-alpha-methylhistamine (approximately 1 nM final concentration), test compounds at various concentrations (0.01 nM-30 μM) and scintillation proximity beads (Perkin Elmer, FlashBlueGPCR Scintillating Beads) in a final volume of 80 μl for 4 hours at room temperature, protected from light. Non-specific binding was determined in the presence of 10 μM clobenpropit. Radioligand bound to receptor, and therefore in proximity to the scintillation beads, was measured using a MicroBeta scintillation counter.", "units": {"Ki": "nM"}}
{"smiles": "O=C(CN1CCCCC1)c1ccc(OCCCN2CCCCC2)cc1", "note": "[Example 2, 2-Piperidin-1-yl-1-[4-(3-piperidin-1-yl-propoxy)-phenyl]-ethanone]", "Ki": "0.1 to 100"}
{"smiles": "O=C(CN1CCCCC1)c1ccc(OCCCN2CCCC2)cc1", "note": "[Example 3, 2-Piperidin-1-yl-1-[4-(3-pyrrolidin-1-yl-propoxy)-phenyl]-ethanone]", "Ki": "0.1 to 100"}
{"smiles": "O=C(CN1CCc2ccccc2C1)c1ccc(OCCCN2CCCCC2)cc1", "note": "[Example 4, 2-(3,4-Dihydro-1H-isoquinolin-2-yl)-1-[4-(3-piperidin-1-yl-propoxy)-phenyl]-ethanone]", "Ki": "0.1 to 100"}
{"smiles": "O=C(CN1CCc2ccccc2C1)c1ccc(OCCCN2CCCC2)cc1", "note": "[Example 5, 2-(3,4-Dihydro-1H-isoquinolin-2-yl)-1-[4-(3-pyrrolidin-1-yl-propoxy)-phenyl]-ethanone]", "Ki": "0.1 to 100"}
{"smiles": "O=C(CN1Cc2ccccc2C1)c1ccc(OCCCN2CCCCC2)cc1", "note": "[Example 6, 2-(1,3-Dihydro-isoindol-2-yl)-1-[4-(3-piperidin-1-yl-propoxy)-phenyl]-ethanone]", "Ki": "0.1 to 100"}
{"smiles": "O=C(CN1CCCc2ccccc21)c1ccc(OCCCN2CCCCC2)cc1", "note": "[Example 7, 2-(3,4-Dihydro-2H-quinolin-1-yl)-1-[4-(3-piperidin-1-yl-propoxy)-phenyl]-ethanone]", "Ki": "0.1 to 100"}
{"smiles": "C[C@@H]1CCCN1CCCOc1ccc(C(=O)CN2CCc3ccccc3C2)cc1", "note": "[Example 9, 2-(3,4-Dihydro-1H-isoquinolin-2-yl)-1-{4-[3-((R)-2-methyl-pyrrolidin-1-yl)-propoxy]-phenyl}-ethanone]", "Ki": "0.1 to 100"}
{"smiles": "CC1CCCCN1CCCOc1ccc(C(=O)CN2CCCCC2)cc1", "note": "(stereo not drawn) [Example 10, 1-{4-[3-(2-Methyl-piperidin-1-yl)-propoxy]-phenyl}-2-piperidin-1-yl-ethanone]", "Ki": "0.1 to 100"}
{"smiles": "CC1CCCC(C)N1CCCOc1ccc(C(=O)CN2CCCCC2)cc1", "note": "(stereo not drawn) [Example 11, 1-{4-[3-(2,6-Dimethyl-piperidin-1-yl)-propoxy]-phenyl}-2-piperidin-1-yl-ethanone]", "Ki": "0.1 to 100"}
{"smiles": "C[C@@H]1CC[C@@H](C)N1CCCOc1ccc(C(=O)CN2CCCCC2)cc1", "note": "[Example 12, 1-{4-[3-((2R,5R)-2,5-Dimethyl-pyrrolidin-1-yl)-propoxy]-phenyl}-2-piperidin-1-yl-ethanone]", "Ki": "0.1 to 100"}
{"smiles": "C[C@H]1CCCN1CCCOc1ccc(C(=O)CN2CCCCC2)cc1", "note": "[Example 13, 1-{4-[3-((S)-2-Methyl-pyrrolidin-1-yl)-propoxy]-phenyl}-2-piperidin-1-yl-ethanone]", "Ki": "0.1 to 100"}
{"smiles": "CC(C(=O)c1ccc(OCCCN2CCCC2)cc1)N1CCCCC1", "note": "(stereo not drawn) [Example 14, 2-Piperidin-1-yl-1-[4-(3-pyrrolidin-1-yl-propoxy)-phenyl]-propan-1-one]", "Ki": "0.1 to 100"}
{"smiles": "CC(C)N1CCN(CCCOc2ccc(C(=O)CN3CCCCC3)cc2)CC1", "note": "[Example 16, 1-{4-[3-(4-Isopropyl-piperazin-1-yl)-propoxy]-phenyl}-2-piperidin-1-yl-ethanone]", "Ki": "0.1 to 100"}
{"smiles": "O=C(CN1CCN(c2ccccc2)CC1)c1ccc(OCCCN2CCCC2)cc1", "note": "[Example 17, 2-(4-Phenyl-piperazin-1-yl)-1-[4-(3-pyrrolidin-1-yl-propoxy)-phenyl]-ethanone]", "Ki": "0.1 to 100"}
{"smiles": "CC1CCCN1CCCOc1ccc(C(=O)CN2CCN(c3ccccc3)CC2)cc1", "note": "(stereo not drawn) [Example 18, 1-{4-[3-(2-Methyl-pyrrolidin-1-yl)-propoxy]-phenyl}-2-(4-phenyl-piperazin-1-yl)-ethanone]", "Ki": "0.1 to 100"}
{"smiles": "CC(C(=O)c1ccc(OCCCN2CCCC2)cc1)N1CCCC1", "note": "(stereo not drawn) [Example 23, 2-Pyrrolidin-1-yl-1-[4-(3-pyrrolidin-1-yl-propoxy)-phenyl]-propan-1-one]", "Ki": "0.1 to 100"}
{"smiles": "CC1CCCN1CCCOc1ccc(C(=O)C(C)N2CCCC2)cc1", "note": "(stereo not drawn) [Example 24, 1-{4-[3-(2-Methyl-pyrrolidin-1-yl)-propoxy]-phenyl}-2-pyrrolidin-1-yl-propan-1-one]", "Ki": "0.1 to 100"}
{"smiles": "CC(C(=O)c1ccc(OCCCN2CCCC2)cc1)N1CCOCC1", "note": "(stereo not drawn) [Example 25, 2-Morpholin-4-yl-1-[4-(3-pyrrolidin-1-yl-propoxy)-phenyl]-propan-1-one]", "Ki": "0.1 to 100"}
